Structures can show the parent of a compound that is named as a salt. Where two headings read alike, the source gives them in different places. Where only a bound is given, the exact number is not on record here.

The text below walks through data of US4826847A, “Beta-blocking oxindole derivatives” (Boehringer Mannheim GmbH, priority 1984, dated 1989).

The test system of test [1] is livers. Briefly: denitration rate relative to isosorbide-5-mononitrate (Vrel): NO2 freed in perfusate of re-perfused rat livers. Conditions: rat liver perfusion 4 min, 5×10^-5 M/l, NO2 determined in the perfusate; high values = fast denitration.
Test [2] deals with increase of the frequency through isoprenaline. Briefly: β-blocking effectiveness: inhibition of isoprenaline-induced increase of the frequency in rabbits. Format: in vivo, rabbit. Conditions: Oryctolagus cuniculus, iv, read-out: ID 50 fcor (dose which causes an inhibition of 50% of the increase of the frequency through isoprenaline).
The mark [3] stands for this setting: rabbits, i.v., isoprenaline 1 mcg/kg i.v.

Turning to `CC(C)(CCO[N+](=O)[O-])NCC(O)COc1cccc2c1CC(=O)N2` (centres unmarked) [1 (a), 4-[2-hydroxy-3-(1,1-dimethyl-3-nitratopropylamino)-propoxy]-indolinone hemifumarate], in test [1], the “Vrel (denitration rate in relation to isosorbide-5-mononitrate)” value (“Vrel” below) turned out to be 1.23. In addition, the ED50 in test [2] (setting [3]) worked out at 0.015 mg/kg.
On to `CC(CC(C)O[N+](=O)[O-])NCC(O)COc1cccc2c1CC(=O)N2` (centres unmarked) [1 (b), 4-[2-hydroxy-3-(1,3-dimethyl-3-nitratopropylamino)-propoxy]-indolinone fumarate], for which the “Vrel” value in test [1] is reported as 2.02. The ED50 in test [2] (setting [3]) stood at 0.0038 mg/kg.
With `CC(CCO[N+](=O)[O-])NCC(O)COc1ccc2c(c1)CC(=O)N2` (centres unmarked) [1 (c), 5-[2-hydroxy-3-(1-methyl-3-nitratopropylamino)-propoxy]-indolinone fumarate], in test [1], the “Vrel” value was found to be 1.77. Moreover, the ED50 in test [2] (setting [3]) turned out to be 5.08 mg/kg.
For the molecule `CC(CCO[N+](=O)[O-])NCC(O)COc1ccc2c(c1)NC(=O)C2` (centres unmarked) [1 (d), 6-[2-hydroxy-3-(1-methyl-3-nitratopropylamino)-propoxy]-indolinone fumarate], the “Vrel” value in test [1] was determined as 1.81.
Turning to `CC(CCO[N+](=O)[O-])NCC(O)COc1cccc2c1NC(=O)C2` (centres unmarked) [1 (e), 7-[2-hydroxy-3-(1-methyl-3-nitratopropylamino)-propoxy]-indolinone fumarate], in test [1], the “Vrel” value came out at 1.79.
Regarding `CC(CCO[N+](=O)[O-])NCC(O)COc1ccc2c(c1)C(C(C)C)C(=O)N2` (centres unmarked) [1 (f), 5-[2-hydroxy-3-(1-methyl-3-nitratopropylamino)-propoxy]-3-isopropylindolinone], in test [1], the “Vrel” value came to 3.01.
As for `CC(CCO[N+](=O)[O-])NCC(O)COc1ccc2c(c1)C(C(C)c1ccccc1)C(=O)N2` (stereo not drawn) [1 (g), 5-[2-hydroxy-3-(1-methyl-3-nitratopropylamino)-propoxy]-3-(α-methylbenzyl)-indolinone hemifumarate], the “Vrel” value in test [1] worked out at 0.70. In addition, the ED50 in test [2] (setting [3]) stood at 5.31 mg/kg.
Taken in the same sequence, the figures for `CC(=C1C(=O)Nc2ccc(OCC(O)CNC(C)CCO[N+](=O)[O-])cc21)c1ccccc1` (stereo not drawn) [1 (i), 5-[2-hydroxy-3-(1-methyl-3-nitratopropylamino)-propoxy]-3-(α-methylbenzylidene)-indolinone hemifumarate] were 0.81 and 3.36 mg/kg.
With `CC(CCO[N+](=O)[O-])NCC(O)COc1cccc2c1C(=Cc1ccc[nH]1)C(=O)N2` (centres unmarked) [2 (a), 4-[2-hydroxy-3-(1-methyl-3-nitratopropylamino)-propoxy]-3-(pyrrol-2-yl)-methylene-indolinone hemifumarate], the “Vrel” value in test [1] amounted to 2.40.
With `CC(CCO[N+](=O)[O-])NCC(O)COc1cccc2c1C(=Cc1ccccn1)C(=O)N2` (centres unmarked) [2 (b), 4-[2-hydroxy-3-(1-methyl-3-nitratopropylamino)-propoxy]-3-(pyridin-2-yl)-methylene-indolinone fumarate], in test [1], the “Vrel” value is 0.86. The ED50 in test [2] (setting [3]) worked out at 0.172 mg/kg.
Taken in the same sequence, the figures for `CC(CCO[N+](=O)[O-])NCC(O)COc1cccc2c1C(=Cc1ccccc1)C(=O)N2` (centres unmarked) [2 (c), 4-[2-hydroxy-3-(1-methyl-3-nitratopropylamino)-propoxy]-3-benzylideneindolinone fumarate] were 0.59 and 1.97 mg/kg.
For the molecule `CC(CCO[N+](=O)[O-])NCC(O)COc1cccc2c1C(=Cc1ccco1)C(=O)N2` (centres unmarked) [4 (a), 4-[2-hydroxy-3-(1-methyl-3-nitratopropylamino)-propoxy]-3-(furan-2-yl)-methylene-indolinone fumarate], in test [1], the “Vrel” value was determined as 0.65. Besides, in test [2] (setting [3]), the ED50 stood at 0.0096 mg/kg.
For `CC(CCO[N+](=O)[O-])NCC(O)COc1cccc2c1C(=Cc1cccs1)C(=O)N2` (centres unmarked) [4 (b), 4-[2-hydroxy-3-(1-methyl-3-nitratopropylamino)-propoxy]-3-(thiophen-2-yl)-methylene-indolinone fumarate], the “Vrel” value in test [1] is listed as 0.54. For the same molecule, in test [2] (setting [3]), the ED50 was determined as 0.0276 mg/kg.
For `CC(CCO[N+](=O)[O-])NCC(O)COc1cccc2c1C(=Cc1nc[nH]n1)C(=O)N2` (centres unmarked) [4 (d), 4-[2-hydroxy-3-(1-methyl-3-nitratopropylamino)-propoxy]-3-(1,2,4-triazol-3-yl)-methyleneindolinone fumarate] the same measures were 1.00 and 0.0096 mg/kg.
On to `CC(=O)O.CC(CCO[N+](=O)[O-])NCC(O)COc1cccc2c1C(=Cc1cc(=O)[nH]c(=O)[nH]1)C(=O)N2` (centres unmarked) [4 (f), 4-[2-hydroxy-3-(1-methyl-3-nitratopropylamino)-propoxy]-3-(uracil-4-yl)-methylene-indolinone acetate], for which, in test [1], the “Vrel” value was determined as 1.80.
Regarding `CC(C)(CCO[N+](=O)[O-])NCC(O)COc1cccc2c1C(=Cc1ccn[nH]1)C(=O)N2` (centres unmarked) [4 (g), 4-[2-hydroxy-3-(1,1-dimethyl-3-nitratopropylamino)-propoxy]-3-(pyrazol-5-yl)-methylene-indolinone hemifumarate], the “Vrel” value in test [1] amounted to 1.59. Moreover, the ED50 in test [2] (setting [3]) amounted to 0.013 mg/kg.
Take `CC(CC(C)O[N+](=O)[O-])NCC(O)COc1cccc2c1C(=Cc1ccn[nH]1)C(=O)N2` (centres unmarked) [4 (h), 4-[2-hydroxy-3-(1,3-dimethyl-3-nitratopropylamino)-propoxy]-3-pyrazol-5-yl)-methylene-indolinone fumarate]: in test [1], the “Vrel” value stood at 1.39. The ED50 in test [2] (setting [3]) amounted to 0.039 mg/kg.
For the molecule `CC(CCO[N+](=O)[O-])NCC(O)COc1cccc2c1C(=Cc1ccc(C#N)cc1)C(=O)N2` (centres unmarked) [4 (j), 4-[2-hydroxy-3-(1-methyl-3-nitratopropylamino)-propoxy]-3-(4-cyanobenzylidene)-indolinone hemifumarate], in test [1], the “Vrel” value is recorded as 0.49.
The same measure, in the same setting: the figure for `Cc1cc(C=C2C(=O)Nc3cccc(OCC(O)CNCC(C)(C)CO[N+](=O)[O-])c32)[nH]n1` (centres unmarked) [4 (k), 4-[2-hydroxy-3-(2,2-dimethyl-3-nitratopropylamino)-propoxy]-3-(3-methylpyrazol-5-yl)-methyleneindolinone] is 1.88; for `CC(CCO[N+](=O)[O-])NCC(O)COc1cccc2c1C(C)(C)C(=O)N2` (centres unmarked) [BV 2, 4-[2-hydroxy-3-(1-methyl-3-nitratopropylamino)-propoxy]-3,3-dimethylindolinone fumarate] it is 2.99.
As for `CC(CCO[N+](=O)[O-])NCC(O)COc1cccc2c1C(=Cc1cccc(Cl)c1)C(=O)N2` (centres unmarked) [BV 4, 4-[2-hydroxy-3-(1-methyl-3-nitratopropylamino)-propoxy]-3-(3-chlorobenzylidene)-indolinone fumarate], the “Vrel” value in test [1] was 1.22. For the same molecule, the ED50 in test [2] (setting [3]) was determined as 1.09 mg/kg.
For `Cc1ccccc1C=C1C(=O)Nc2cccc(OCC(O)CNC(C)CCO[N+](=O)[O-])c21` (centres unmarked) [BV 6, 4-[2-hydroxy-3-(1-methyl-3-nitratopropylamino)-propoxy]-3-(2-methylbenzylidene)-indolinon fumarate], in test [1], the “Vrel” value is listed as 0.74. For the same molecule, the ED50 in test [2] (setting [3]) is greater than 4 mg/kg.
Take `COc1cccc(C=C2C(=O)Nc3cccc(OCC(O)CNC(C)CCO[N+](=O)[O-])c32)c1` (centres unmarked) [BV 9, 4-[2-hydroxy-3-(1-methyl-3-nitratopropylamino)-propoxy]-3-(3-methoxybenzylidene)-indolinone acetate]: the “Vrel” value in test [1] was found to be 0.60. Further, the ED50 in test [2] (setting [3]) worked out at 0.765 mg/kg.
Consider `CC(CCO[N+](=O)[O-])NCC(O)COc1cccc2c1C(=Cc1ccc([N+](=O)[O-])cc1)C(=O)N2` (centres unmarked) [BV 20, 4-[2-hydroxy-3-(1-methyl-3-nitratopropylamino)-propoxy]-3-(4-nitrobenzylidene)-indolinone], for which, in test [1], the “Vrel” value stood at 0.71. In addition, the ED50 in test [2] was 0.113 mg/kg.
On to `CC(C)(CNCC(O)COc1cccc2c1CC(=O)N2)CO[N+](=O)[O-]` (centres unmarked) [BV 40, 4-[2-hydroxy-3-(2,2-dimethyl-3-nitratopropylamino)-propoxy]-indolinone hemifumarate], for which, in test [1], the “Vrel” value is 3.51. Further, the ED50 in test [2] (setting [3]) was 0.69 mg/kg.
Taken in the same sequence, the figures for `Cc1cc(C=C2C(=O)Nc3cccc(OCC(O)CNC(C)CCO[N+](=O)[O-])c32)[nH]n1` (centres unmarked) [BV 43, 4-[2-hydroxy-3-(1-methyl-3-nitratopropylamino)-propoxy]-3-(3-methylpyrazol-5-yl)-methyleneindolinone] were 0.83 and 0.0096 mg/kg.
For `CC(CCO[N+](=O)[O-])NCC(O)COc1cccc2c1CC(=O)N2` (centres unmarked) [Example 1, 4-[2-hydroxy-3-(1-methyl-3-nitratopropylamino)-propoxy]-indolinone benzoate] the same measures were 1.60 and 0.0066 mg/kg.
Taken in the same sequence, the figures for `CC(CCO[N+](=O)[O-])NCC(O)COc1cccc2c1C(=Cc1ccn[nH]1)C(=O)N2` (centres unmarked) [Example 2, 4-[2-Hydroxy-3-(1-methyl-3-nitratopropylamino)-propoxy]-3-(pyrazol-5-yl)-methyleneindolinone benzoate] were 1.12 and 0.011 mg/kg.
On to `O=[N+]([O-])O[C@@H]1CO[C@H]2[C@@H]1OC[C@@H]2O` [Isosorbide-5-mononitrate, isosorbide-5-mononitrate, reference compound], for which the “Vrel” value in test [1] turned out to be 0.86.
Take `CC(C)NCC(O)COc1cccc2[nH]ccc12` (centres unmarked) [Pindolol, reference compound]: the ED50 in test [2] (setting [3]) was 0.104 mg/kg.
